Data reported in US8791155B2, “Chroman derivatives” (Edison Pharmaceuticals, Inc., priority 2003, dated 2014).

Assays:
[1] = tested on: FRDA fibroblasts; experiment: FRDA fibroblast assay for protection from oxidative stress (BSO); type: cell-based; conditions: Homo sapiens, preincubation 24 h before 1 mM BSO, read-out: EC50, reduced cell death in FRDA fibroblasts compared to untreated FRDA fibroblasts
Text: A cellular assay using FRDA-patient derived fibroblasts (as described by Jauslin, M L et al, Human Molecular Genetics 11; 3055-3063 (2002)); was used to determine the protective effects of the test compounds by analyzing survival of dermal fibroblasts taken from FRDA patients and unaffected normal donors under conditions of partial GSH depletion. Exposure of FRDA fibroblasts to BSO (L-buthionine (S,R)-sulfoximine) under conditions of restricted selenium causes depletion of cellular glutathione (GSH) and severe plasma membrane damage leading to cell death. Preincubation with the test compounds before the addition of BSO was used to determine if they could protect FRDA cells from BSO-mediated cell death.
Primary fibroblasts were derived from donors with a molecular diagnosis of FRDA and control donors with no mitochondria) disease. Lines F2, C2 and C3 were obtained from Coriell Cell Repositories (Camden, N.J., USA; catalog nos GM04078, GM 08402 and GM08399, respectively). All cell types were diagnosed at the molecular level for intronic GAA triplet repeat length in the frataxin gene using a PCR-based method, according to methods known in the art. […] The cells were seeded in 96-well plates at a density of 4000 cells per 100 pI in growth medium consisting of 25% (v/v) M199 EBS and 64% (v/v) MEM EBS without phenol red (Bioconcept, Allschwil, Switzerland) supplemented with 10% (v/v) fetal calf serum (PAA Laboratories, Linz, Austria), 100 U/ml penicillin, 100 μg/ml streptomycin (PAA Laboratories, Linz, Austria), 10 μg/ml insulin (Sigma, Buchs, Switzerland), 10 ng/ml EGF (Sigma, Buchs, Switzerland), 10 ng/ml bFGF (PreproTech, Rocky Hill, N.J., USA) and 2 mM glutamine (Sigma, Buchs, Switzerland). The cells were incubated in the presence of the various test compounds for 24 h before addition of 1 mM BSO (L-buthionine (S,R)-sulfoximine).
Cell viability was measured after the first signs of toxicity appeared in the BSO-treated controls (typically after 16-48 h). The cells were stained for 60 min at room temperature in PBS with 1.2 μm calceinAM and 4 pm ethidium homodimer (Live/Dead assay, Molecular Probes, Eugene, Oreg., USA). Fluorescence intensity was measured with a Gemini Spectramax XS spectrofluorimeter (Molecular Devices, Sunnyvale, Calif., USA) using excitation and emission wavelengths of 485 and 525 nm, respectively.

[2] = biological target: T1, porcine leukocyte 12/15-lipoxygenase (Sus scrofa, UniProt P16469); experiment: 12/15-Lipoxygenase enzyme assay; type: biochemical; conditions: 70 μM arachidonic acid, pH 7.4, 10 minute incubation; read-out: IC50, inhibition of 12/15-Lipoxygenase
T1 construct: purchased Cayman 60300
T1 sequence (P16469 1-663): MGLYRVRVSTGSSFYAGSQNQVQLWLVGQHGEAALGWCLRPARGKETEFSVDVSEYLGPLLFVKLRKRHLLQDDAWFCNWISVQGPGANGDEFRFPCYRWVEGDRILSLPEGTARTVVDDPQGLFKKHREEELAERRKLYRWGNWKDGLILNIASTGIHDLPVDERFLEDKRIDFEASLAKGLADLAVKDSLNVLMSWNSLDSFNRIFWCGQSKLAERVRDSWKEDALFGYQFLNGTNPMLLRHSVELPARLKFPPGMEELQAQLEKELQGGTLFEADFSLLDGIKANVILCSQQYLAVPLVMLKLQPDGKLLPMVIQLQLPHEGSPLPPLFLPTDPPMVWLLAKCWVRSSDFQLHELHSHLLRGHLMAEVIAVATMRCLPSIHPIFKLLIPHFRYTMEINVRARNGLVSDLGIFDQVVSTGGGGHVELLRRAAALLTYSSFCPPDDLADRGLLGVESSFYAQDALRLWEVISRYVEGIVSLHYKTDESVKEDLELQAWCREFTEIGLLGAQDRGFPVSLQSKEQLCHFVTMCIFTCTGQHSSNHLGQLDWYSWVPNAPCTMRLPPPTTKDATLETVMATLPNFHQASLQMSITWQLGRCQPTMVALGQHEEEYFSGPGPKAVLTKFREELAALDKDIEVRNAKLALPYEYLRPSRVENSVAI
Text: In vitro evaluation of the ability of a composition to inhibit the enzymes 5-lipoxygenase, 15-lipoxygenase, or 12/15 lipoxygenase as described in Walidge, N. B. et al Anal. Biochem., 231: 354-358 (1995) using a high throughput colorimetric method; as well as in vitro evaluation of inhibiting LTB4 is described in Examples.
This procedure was used for measuring the enzymatic activity of porcine leukocyte 12/15-lipoxygenase using a colorimetric method based on the ferric oxidation of xylenol orange.
• 96 well flat bottom microfilter plates (VWR, Catalog #62402-933 9295) • Lipoxygenase screening assay buffer (Cayman, Catalog #760710) • Porcine leukocyte 12/15-lipoxygenase (Cayman, Catalog #60300) • Arachidonic Acid (Sigma, Catalog #A3555) • Xylenol orange tetrasodium salt (Aldrich, Catalog #227854) • Iron (II) sulfate heptahydrate (Sigma, Catalog #F7002) • Sulfuric acid (95-98%) [18M] • Methanol Procedure
Porcine Leukocyte 12/15-lipoxygenase (Cayman Cat #60300) was used in this assay. Test compound and/or vehicle was added to 1.3 U 12/15-lipoxygenase in 50 mM Tris-HCl buffer, pH 7.4. The reaction was initiated by addition of 70 μM arachidonic acid in Tris-HCl buffer, pH 7.4, and terminated after a 10 minute incubation at room temperature by addition of FOX reagent (25 mM sulphuric acid, 100 μM xylenol orange, 100 μM iron (II) sulphate, methanol:water 9:1). The yellow color of acidified xylenol orange was converted to a blue color by the lipid hydroperoxide-mediated oxidation of Fe 2+ ions and the interaction of the resulting Fe 3+ ions with the dye. The complex was allowed to form during a 1 hour incubation at room temperature with shaking. Absorbance of the Fe 3+ complex was then measured at […] using a spectrophotometer.
Negative controls contained enzyme during the incubation step but substrate was not added until after the FOX reagent.
Compounds are screened at 5 concentrations in triplicate starting at 10 μM

| Structure (SMILES) | EC50 [1] [µM] | IC50 [2] [nM] |
| --- | --- | --- |
| CC1=NN(c2ccccc2)C(=O)C1C(CCC1(C)CCc2cc(O)c(C)c(C)c2O1)C1C(=O)N(c2ccccc2)N=C1C (stereo not drawn) [1-(6-Hydroxy-2,7,8-trimethyl-chroman-2-yl)-3-bis-(5-methyl-2-phenyl-2,4-dihydro-pyrazol-3-one-4-yl)-propane] | 0.01 to 6 |  |
| Cc1c(C)c2c(c(C)c1O)CCC(C)(C=C(Br)Br)O2 (stereo not drawn) [2-(2,2-Dibromo-vinyl)-2,5,7,8-tetramethyl-chroman-6-ol] |  | < 1000 |
| COC(=O)c1ccc(-c2c(O)c(C)c(C)c3c2CCC(C)(C)O3)cc1 [4-(6-Hydroxy-2,2,7,8-tetramethyl-chroman-5-yl)-benzoic acid methyl ester] |  | < 1000 |
| C=CCSCc1c(O)c(C)c(C)c2c1CCC(C)(C)O2 [5-Allylsulfanylmethyl-2,2,7,8-tetramethyl-chroman-6-ol] | 0.01 to 6 | < 1000 |
| Cc1c(O)cc2c(c1C)OC(C)(CC/C=C1\SC(=O)NC1=O)CC2 (stereo not drawn) [5-[3-(6-Hydroxy-2,7,8-trimethyl-chroman-2-yl)-propylidene]-thiazolidine-2,4-dione] | 0.01 to 6 |  |
